From patent publication US20150004620A1, “METHOD OR DEVICE FOR IDENTIFYING INHIBITOR OF EPITHELIAL MESENCHYMAL TRANSITION” (Agency for Science, Technology and Research, priority 2011, published 2015)

What was measured:
Assay type in all cases: cell-based
[1] = tested on: HGF-induced EMT in NBT-II cells; test: EMT spot migration assay, HGF-induced; conditions: HGF-induced EMT (4 ng/ml HGF), CDR dose response from 6.67 μM, read-out: Cell Dispersion IC 50, HGF
Procedure: NBT-II cells were stably transfected with mcherry-fluorescent H2B and maintained in DMEM supplemented with 10% fetal bovine serum (FBS, Thermo Scientific), 1 μg/ml puromycin (Sigma) and 100 units/ml penicillin-streptomycin (1× pen-strep, Invitrogen). Cells were grown to 80% confluency in tissue culture flasks prior to plating. Cells were trypsinized and concentrated to a density of 5×10^6 cell/ml in CO2-independent medium (Invitrogen) supplemented with 10% FBS. The cell suspension was then evenly dispersed into the wells of two columns of a 96-well V-bottom plate. Using a robotic liquid-handling station (Bravo, Agilent Technologies), 0.5 μl of cell suspension was transferred from the two columns of the cell suspension-loaded plate and deposited into the center of the wells of two columns of a 96-well clear bottom, black assay plate (Corning). This process was repeated six times so that all 96 wells of the assay plate were deposited with a cell suspension spot. The plate was then sealed to minimize evaporation of the cell suspension spots and transferred to a 37° C., 5% CO2 incubator to allow for cells to attach to the culture surface. After 1 hour, the plate was gently washed with medium once to remove unattached cells, refreshed with 100 μl of assay medium (DMEM supplemented with 10% FBS and 1× pen-strep), and then further incubated to allow for cell-cell contacts to establish in the cell colonies.
Four tiled, non-overlapping images were acquired around the center of each well, and were then stitched together during image analysis to generate a montage covering an area of 3.2 mm×3.2 mm. These images (T1) represent the initial state of the cell colonies before EMT induction.
After the T1 images were acquired, 1 μl of test compounds were transferred from compound stock plates and added to the assay plates. Appropriate negative controls (1 μl DMSO) and positive controls (1 μl 1.0 mM compound in DMSO) were also added into columns 1 and 12 of each assay plate, respectively. […] The cultures were then further incubated overnight.
The next day, 50 μl of growth factor-containing medium was added to each well of the assay-plates. For each of the growth factor-induced EMT spot migration assays, the final growth factor concentrations in each well is optimized to be 20 ng/ml EGF (Sigma), 4 ng/ml HGF (Calbiochem) or 150 ng/ml IGF-1 (R&D Systems), respectively. The cultures were then incubated for another 24 hours, to allow for EMT and sufficient cell motility/dispersion to occur in the cell colonies.
Finally, the cell colonies were imaged again using the microplate imager, as described above. These images (T2) represent the final state of the cell colonies after compound treatment and EMT induction. The acquired T1 and T2 image sets for each assay plate were then sent for image analysis.
The acquisition of each well was obtained by four adjacent field images with no interstice in between. Each field image was loaded and nuclei were initially segmented independently of other fields to prevent artifact at the field border. Nuclei segmentation was achieved by combining a wavelet transform which is robust to noise and unhomogeneous background, and a watershed algorithm based on intensities to split nuclei clusters. Mask of nuclei segmentation of the different fields were then stitched together in order to obtain a large segmentation of the whole well. Cell bodies were estimated by applying a morphological dilation on the nucleus segmentation using a disk of 30 pixels (48 μm) in diameter. In cells that are contiguous, such as in a cell colony, nuclei segmentation dilation will result in the formation of continuous region areas with surrounding cells which can then be identified as colonies.
Total cell number and spreading coefficient values for each well were then exported into an Excel sheet.

E-cadherin = test: Western blot of EMT marker E-cadherin in growth factor-treated NBT-II cells; conditions: NBT-II cells, 0.5, 2 and 8 μM compound overnight, then EGF, HGF or IGF-1 for 24 h (FIG. 7)
Procedure: NBT-II cells were treated with compounds at 0.5, 2 and 8 μM overnight and incubated with a growth factor for 24 h. Cells were lysed with protease/phosphatase inhibitor-containing RIPA buffer. Proteins are separated in 8% polyacrylamide gels and transferred to PDVF membranes. Membranes were blocked in 5% BSA and incubated at 4° C. overnight with MMP-13 (Millipore), E-cadherin (BD) and α-tubulin (Sigma) primary antibodies. Membranes were then developed with HRP-conjugated secondary antibody (Amersham) and ECL substrate (Millipore).
The possibilities that ALK5, MEK, PI3K and SRC targeting compounds could modulate the expression of EMT markers, such as E-cadherin and matrix metalloproteinase-13 (MMP-13) under EMT-activated conditions were also investigated (FIG. 7). With the exception of P13K inhibitor GDC-0941, the compounds in general abrogated MMP-13 expression in growth factor-treated samples, PI3K inhibition has been previously shown to augment MMP-13 expression. […] These findings are consistent with previous reports showing that ALK5, MEK and SRC play a role in cell motility and tumor progression, while PI3K predominately regulates cell proliferation.

[2] = tested on: ovarian carcinoma cell lines; test: Phase contrast cell morphology, ovarian carcinoma cell lines; conditions: A2780J, DOV13 and HEY cell lines, 2 μM for 48 hours vs 0.02% DMSO
Procedure: Cell lines were treated with 2 μM AZD0530 or 0.02% DMSO control for 48 hours. Scale bar is 200 μm. Thus, FIG. 9 provides an example of how the method as described herein may be validated by the use of various ovarian carcinoma cell lines.

plakoglobin = test: Western blot of plakoglobin in cell lines; conditions: 2 μM for 48 hours vs 0.02% DMSO
Procedure: FIG. 10 is a western blot image showing the increase in epithelial marker plakoglobin expression induced by AZD0530 in cell lines. Cell lines were treated with 2 μM AZD0530 or 0.02% DMSO control for 48 hours. Thus, FIG. 10 provides an example of possible downstream analysis that may be conducted subsequent to the detection of possible inhibitor by the method as described herein. In this figure, western blot analysis was used to validate the possible inhibitor detected by the method as described herein.
(§1) For western blot experiments with other cell lines, cells are treated either with AZD0530, such as 2 μM AZD0530 or DMSO, such as 0.02% DMSO control for 48 h. The samples are then processed using the same procedure as described above. The samples were probed with MMP-13, E-cadherin, plakoglobin (Cell Signaling), α-tubulin, and β-actin (Cell Signaling) antibodies.

MMP-13 = test: Western blot of MMP-13 in ovarian carcinoma cell lines; conditions: panel of ovarian carcinoma cell lines, 2 μM for 48 hours vs 0.02% DMSO
Procedure: FIG. 11 is a western blot image showing the increase in epithelial marker E-cadherin expression and the decrease of mesenchymal marker MMP-13 expression in panel of ovarian carcinoma cell lines treated with AZD0530. Cell lines were treated with 2 μM AZD0530 or 0.02% DMSO control for 48 hours. Thus, FIG. 11 provides an example of possible downstream analysis that may be conducted subsequent to the detection of possible inhibitor by the method as described herein. In this figure, western blot analysis was used to validate the possible inhibitor detected by the method as described herein.
as §1

IC50 [1]: 510 nM
SMILES: CN1CCN(CCOc2cc(OC3CCOCC3)c3c(Nc4c(Cl)ccc5c4OCO5)ncnc3c2)CC1 [AZD0530]
E-cadherin expression (E-cadherin): augment E-cadherin expression
Cell morphology (phase contrast) [2]: compaction of cell morphology
Epithelial marker plakoglobin expression (plakoglobin): increase
Mesenchymal marker MMP-13 expression (MMP-13): decrease
